This passage reports Ki results from US7351706B2, “Indol-3-yl-carbonyl-spiro-piperidine derivatives” (Hoffmann-La Roche Inc., priority 2006, dated 2008).

T1 sequence (P37288 whole entry): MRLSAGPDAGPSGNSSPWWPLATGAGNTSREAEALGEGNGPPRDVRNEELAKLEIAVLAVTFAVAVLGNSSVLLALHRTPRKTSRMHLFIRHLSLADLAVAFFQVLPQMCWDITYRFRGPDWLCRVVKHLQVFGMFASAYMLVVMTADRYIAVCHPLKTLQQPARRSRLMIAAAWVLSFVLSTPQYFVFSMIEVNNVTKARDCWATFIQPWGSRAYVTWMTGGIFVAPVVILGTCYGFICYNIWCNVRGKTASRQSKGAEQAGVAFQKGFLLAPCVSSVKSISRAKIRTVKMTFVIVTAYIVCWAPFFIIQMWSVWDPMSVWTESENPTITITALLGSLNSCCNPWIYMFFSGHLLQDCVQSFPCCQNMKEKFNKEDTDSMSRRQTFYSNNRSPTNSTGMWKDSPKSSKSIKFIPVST

This experiment has as its target T1, human V1a receptor (Homo sapiens, UniProt P37288).
T1 construct: expressed in transfected cells; host or cells: HEK293 cells, transiently transfected; membranes prepared
Kind of experiment: human V1a receptor binding (3H-Vasopressin SPA, HEK293 membranes). The conditions noted are these: 3H-Vasopressin displacement, membranes of HEK293 cells transiently transfected with human V1a; Ki by Cheng-Prussoff. As for the experimental part:
The human V1a receptor was cloned by RT-PCR from total human liver RNA. The coding sequence was subcloned in an expression vector after sequencing to confirm the identity of the amplified sequence. […] Cell membranes were prepared from HEK293 cells transiently transfected with the expression vector and grown in 20 liter fermenters with the following protocol.
50 g of cells are resuspended in 30 ml freshly prepared ice cold Lysis buffer (50 mM HEPES, 1 mM EDTA, 10 mM MgCl2 adjusted to pH=7.4+complete cocktail of protease inhibitor (Roche Diagnostics)). Homogenized with Polytron for 1 min and sonicated on ice for 2×2 minutes at 80% intensity (Vibracell sonicator). The preparation is centrifuged 20 min at 500 g at 4° C., the pellet is discarded and the supernatant centrifuged 1 hour at 43'000 g at 4° C. (19'000 rpm). The pellet is resuspended in 12.5 ml Lysis buffer+12.5 ml Sucrose 20% and homogenized using a Polytron for 1-2 min. The protein concentration is determined by the Bradford method and aliquots are stored at −80° C. until use. For binding studies 60 mg Yttrium silicate SPA beads (Amersham) are mixed with an aliquot of membrane in binding buffer (50 mM Tris, 120 mM NaCl, 5 mM KCl, 2 mM CaCl2, 10 mM MgCl2) for 15 minutes with mixing. 50 ul of bead/membrane mixture is then added to each well of a 96 well plate, followed by 50 ul of 4 nM 3H-Vasopressin (American Radiolabeled Chemicals). For total binding measurement 100 ul of binding buffer are added to the respective wells, for non-specific binding 100 ul of […] cold vasopressin and for compound testing 100 ul of a serial dilution of each compound in 2% DMSO. The plate is incubated 1 h at room temperature, centrifuged 1 min at 1000 g and counted on a Packard Top-Count. Non-specific binding counts are subtracted from each well and data is normalized to the maximum specific binding set at 100%. To calculate an IC 50 the curve is fitted using a non-linear regression model (XLfit) and the Ki is calculated using the Cheng-Prussoff equation.
For `O=C1Nc2ccccc2C2(CCN(C(=O)c3c[nH]c4cc(Cl)ccc34)CC2)O1` [Example 1, 1′-[(6-Chloro-1H-indol-3-yl)carbonyl]spiro[3,1-benzoxazine-4,4′-piperidin]-2(1H)-one], the affinity, expressed as Ki, was 32 nM. This counts as double-digit nanomolar.

Turning to `O=C1CC2(CCN(C(=O)c3c[nH]c4ccccc34)CC2)c2cc(Br)ccc2N1` [Example 2, 6′-Bromo-1-(1H-indol-3-ylcarbonyl)-1′H-spiro[piperidine-4,4′-quinolin]-2′(3′H)-one], the Ki (commonly a measure of affinity in units of concentration, obtained from inhibition or displacement) worked out at 2050 nM. Against the preceding compound, the Ki is about 64-fold higher.

Turning to `CN(C)CCN1C(=O)OC2(CCN(C(=O)c3c[nH]c4cc(Cl)ccc34)CC2)c2cc(Cl)ccc21` [Example 3, 6-Chloro-1′-[(6-chloro-1H-indol-3-yl)carbonyl]-1-[2-(dimethylamino)ethyl]spiro[3,1-benzoxazine-4,4′-piperidin]-2(1H)-one], the inhibition constant Ki stood at 402 nM. This Ki lies about 5.1-fold lower than the previous one.

The compound `O=C1Nc2ccc(Cl)cc2C2(CCN(C(=O)c3c[nH]c4cc(Cl)ccc34)CC2)O1` [Example 4, 6-Chloro-1′-[(6-chloro-1H-indol-3-yl)carbonyl]spiro[3,1-benzoxazine-4,4′-piperidin]-2(1H)-one] returned a Ki of 310 nM.

With `O=C1Nc2ccccc2C2(CCN(C(=O)c3cn(-c4cc(F)cc(F)c4)c4cc(Cl)ccc34)CC2)O1` [Example 5, 1′-{[6-Chloro-1-(3,5-difluorophenyl)-1H-indol-3-yl]carbonyl}spiro[3,1-benzoxazine-4,4′-piperidin]-2(1H)-one], the Ki turned out to be 130 nM.

In the case of `O=C1Nc2ccccc2C2(CCN(C(=O)c3cn(C(=O)c4cccc(F)c4)c4cc(Cl)ccc34)CC2)O1` [Example 6, 1′-{[6-Chloro-1-(3-fluorobenzoyl)-1H-indol-3-yl]carbonyl}spiro[3,1-benzoxazine-4,4′-piperidin]-2(1H)-one], the inhibitory constant (Ki) was determined as 118 nM. The Ki values of the last two compounds are within 1.5-fold of each other.

With `O=C1Nc2ccccc2C2(CCN(C(=O)c3cn(C(=O)c4ccccc4F)c4cc(Cl)ccc34)CC2)O1` [Example 7, 1′-{[6-Chloro-1-(2-fluorobenzoyl)-1H-indol-3-yl]carbonyl}spiro[3,1-benzoxazine-4,4′-piperidin]-2(1H)-one], affinity was put at a Ki of 117 nM.

As for `O=C1Nc2ccccc2C2(CCN(C(=O)c3cn(C(=O)c4cccc(F)c4F)c4cc(Cl)ccc34)CC2)O1` [Example 8, 1′-{[6-Chloro-1-(2,3-difluorobenzoyl)-1H-indol-3-yl]carbonyl}spiro[3,1-benzoxazine-4,4′-piperidin]-2(1H)-one], the Ki was determined as 136 nM.

`O=C1Nc2ccccc2C2(CCN(C(=O)c3cn(Cc4cc(F)cc(F)c4)c4cc(Cl)ccc34)CC2)O1` [Example 10, 1′-{[6-Chloro-1-(3,5-difluorobenzyl)-1H-indol-3-yl]carbonyl}spiro[3,1-benzoxazine-4,4′-piperidin]-2(1H)-one] showed a Ki of 3 nM.

`O=C1Nc2ccccc2C2(CCN(C(=O)c3cn(Cc4cccc(F)c4)c4cc(Cl)ccc34)CC2)O1` [Example 11, 1′-{[6-Chloro-1-(3-fluorobenzyl)-1H-indol-3-yl]carbonyl}spiro[3,1-benzoxazine-4,4′-piperidin]-2(1H)-one]: the inhibition constant (Ki) is 5 nM.

`O=C1Nc2ccccc2C2(CCN(C(=O)c3cn(CC(=O)c4cccc(F)c4)c4cc(Cl)ccc34)CC2)O1` [Example 12, 1′-({6-Chloro-1-[2-(3-fluorophenyl)-2-oxoethyl]-1H-indol-3-yl}carbonyl)spiro[3,1-benzoxazine-4,4′-piperidin]-2(1H)-one] displayed a Ki of 7 nM.

With `O=C1Nc2ccccc2C2(CCN(C(=O)c3cn(CC(=O)c4ccc(F)c(F)c4)c4cc(Cl)ccc34)CC2)O1` [Example 13, 1′-({6-Chloro-1-[2-(3,4-difluorophenyl)-2-oxoethyl]-1H-indol-3-yl}carbonyl)spiro[3,1-benzoxazine-4,4′-piperidin]-2(1H)-one], the inhibitory constant (Ki) amounted to 8 nM.

Take `O=C1Nc2ccccc2C2(CCN(C(=O)c3cn(CC(=O)N4CCCCC4)c4cc(Cl)ccc34)CC2)O1` [Example 15, 1′-{[6-Chloro-1-(2-oxo-2-piperidin-1-ylethyl)-1H-indol-3-yl]carbonyl}spiro[3,1-benzoxazine-4,4′-piperidin]-2(1H)-one]: the Ki is 7 nM.

In turn, `O=C1Nc2ccccc2C2(CCN(C(=O)c3cn(CC(=O)N4CCOCC4)c4cc(Cl)ccc34)CC2)O1` [Example 16, 1′-{[6-Chloro-1-(2-morpholin-4-yl-2-oxoethyl)-1H-indol-3-yl]carbonyl}spiro[3,1-benzoxazine-4,4′-piperidin]-2(1H)-one] had an inhibition constant (Ki) of 20 nM. Against the preceding compound, the Ki is about 2.9-fold higher.

Turning to `CN(C)C(=O)Cn1cc(C(=O)N2CCC3(CC2)OC(=O)Nc2ccccc23)c2ccc(Cl)cc21` [Example 17, 2-{6-Chloro-3-[(2-oxo-1,2-dihydro-1′H-spiro[3,1-benzoxazine-4,4′-piperidin]-1′-yl)carbonyl]-1H-indol-1-yl}-N,N-dimethylacetamide], affinity was put at a Ki of 5.7 nM.

`CCN(CC)C(=O)Cn1cc(C(=O)N2CCC3(CC2)OC(=O)Nc2ccccc23)c2ccc(Cl)cc21` [Example 18, 2-{6-Chloro-3-[(2-oxo-1,2-dihydro-1H-spiro[3,1-benzoxazine-4,4′-piperidin]-1′-yl)carbonyl]-1H-indol-1-yl}-N,N-diethylacetamide]: the Ki was 6 nM.

`O=C1Nc2ccccc2C2(CCN(C(=O)c3cn(C(=O)N4CCCCC4)c4cc(Cl)ccc34)CC2)O1` [Example 19, 1′-{[6-Chloro-1-(piperidin-1-ylcarbonyl)-1H-indol-3-yl]carbonyl}spiro[3,1-benzoxazine-4,4′-piperidin]-2(1H)-one] gave an inhibition constant (Ki) of 46 nM.

`CC(C)(C)OC(=O)Cn1cc(C(=O)N2CCC3(CC2)OC(=O)Nc2ccccc23)c2ccc(Cl)cc21` [Example 20, tert-Butyl {6-chloro-3-[(2-oxo-1,2-dihydro-1′H-spiro[3,1-benzoxazine-4,4′-piperidin]-1′-yl)carbonyl]-1H-indol-1-yl}acetate]: the inhibition constant (Ki) was determined as 10 nM.

On to `O=C1Nc2ccccc2C2(CCN(C(=O)c3cn(C(=O)c4cc(F)cc(F)c4)c4cc(Cl)ccc34)CC2)O1` [Example 21, 1′-{[6-Chloro-1-(3,5-difluorobenzoyl)-1H-indol-3-yl]carbonyl}spiro[3,1-benzoxazine-4,4′-piperidin]-2(1H)-one], for which affinity was put at a Ki of 88 nM.

Consider `O=C1Nc2ccccc2C2(CCN(C(=O)c3cn(CC(=O)c4cc(F)cc(F)c4)c4cc(Cl)ccc34)CC2)O1` [Example 22, 1′-({6-Chloro-1-[2-(3,5-difluorophenyl)-2-oxoethyl]-1H-indol-3-yl}carbonyl)spiro[3,1-benzoxazine-4,4′-piperidin]-2(1H)-one], for which the inhibition constant Ki came to 200 nM.

In the case of `O=C1Nc2ccccc2C2(CCN(C(=O)c3cn(CC(=O)c4ccccc4F)c4cc(Cl)ccc34)CC2)O1` [Example 23, 1′-({6-Chloro-1-[2-(2-fluorophenyl)-2-oxoethyl]-1H-indol-3-yl}carbonyl)spiro[3,1-benzoxazine-4,4′-piperidin]-2(1H)-one], the Ki turned out to be 2 nM.

The compound `N#CCCn1cc(C(=O)N2CCC3(CC2)OC(=O)Nc2ccccc23)c2ccc(Cl)cc21` [Example 24, 3-{6-Chloro-3-[(2-oxo-1,2-dihydro-1′H-spiro[3,1-benzoxazine-4,4′-piperidin]-1′-yl)carbonyl]-1H-indol-1-yl}propanenitrile] registered a Ki of 10 nM. This Ki lies about 5-fold higher than the previous one.

For the compound `CC(C#N)n1cc(C(=O)N2CCC3(CC2)OC(=O)Nc2ccccc23)c2ccc(Cl)cc21` (centres unmarked) [Example 25, 2-{6-Chloro-3-[(2-oxo-1,2-dihydro-1′H-spiro[3,1-benzoxazine-4,4′-piperidin]-1′-yl)carbonyl]-1H-indol-1-yl}propanenitrile], the inhibitory constant (Ki) came out at 28 nM.

On to `O=C1Nc2ccccc2C2(CCN(C(=O)c3cn(CC(=O)c4ccccn4)c4cc(Cl)ccc34)CC2)O1` [Example 26, 1′-{[6-Chloro-1-(2-oxo-2-pyridin-2-ylethyl)-1H-indol-3-yl]carbonyl}spiro[3,1-benzoxazine-4,4′-piperidin]-2(1H)-one], for which the affinity, expressed as Ki, was 8 nM.

Take `Cc1oc(-c2ccccc2)nc1C(=O)Cn1cc(C(=O)N2CCC3(CC2)OC(=O)Nc2ccccc23)c2ccc(Cl)cc21` [Example 27, 1′-({6-Chloro-1-[2-(5-methyl-2-phenyl-1,3-oxazol-4-yl)-2-oxoethyl]-1H-indol-3-yl}carbonyl)spiro[3,1-benzoxazine-4,4′-piperidin]-2(1H)-one]: the Ki is 29 nM.

`CNC(=O)Cn1cc(C(=O)N2CCC3(CC2)CNC(=O)c2ccccc23)c2ccc(Cl)cc21` [Example 28, 2-{6-chloro-3-[(1-oxo-2,3-dihydro-1H, 1′H-spiro[isoquinoline-4,4′-piperidin]-1′-yl)carbonyl]-1H-indol-1-yl}-N-methylacetamide]: the Ki was 166 nM.
